Four compounds from patent publication US20190055280A1, “TRANSITION METAL-BASED SELECTIVE FUNCTIONALIZATION OF CHALCOGENS IN BIOMOLECULES” (Massachusetts Institute of Technoloy, priority 2014, published 2019) can be followed below.

Molecules are shown by their SMILES. Like-named read-outs stand apart in the source and are kept apart here. Peptide text beside a SMILES is read from it. * marks the point of attachment. Succinimide(1-Et,3-yl) = CCN1C(=O)CC(*)C1=O; Bn = c1ccc(C*)cc1; X1 = Cc1ccc(*)cc1; Cam = NC(=O)C*

This data set can be described thus: Stability evaluation of peptide P1 cysteine conjugates in the presence of base, acid or an external thiol nucleophile (LC-MS). The data set is classed as physicochemical. The note with it: for stability toward acids (in words): acidic conditions; for stability toward bases (in words): basic conditions; for stability toward external thiol nucleophiles (in words): exogenous thiol. As to the method: All reported yields were determined by integrating TIC spectra. First, the peak areas for all relevant peptide-containing species on the chromatogram were integrated using Agilent MassHunter software package. Since no peptide-based side products were generated in the experiments, the yields shown in Table 2 were determined as follows: % yield=Spr/Stotal where Spr is the peak area of the product and Stotal is the peak area of combined peptide-containing species (product and starting material). The yield of the stapled peptide (Example 19) was calculated as follows: % yield=k·Spr/Sst where Spr is the peak area of the reaction product, Sst is the peak area of a known amount of purified product, and k equals to the ratio of the known amount of standard divided by the initial amount of starting material. For peptide stability experiments the conversion was calculated as following: % remaining peptide=St/S0 where St is the peak area of the corresponding cysteine conjugate at time t, and S0 is the peak area of the cysteine conjugate at time 0.
Peptide P1 conjugates were pre-dissolved in water in plastic Eppendorfs to afford the 1.11 mM stock solutions used in the stability evaluation experiments. For each experiment, the corresponding cysteine conjugate (1.11 mM; 18 μL) and stability test reagent (2 μL, 50 mM in H2O or 50 mM in 1M Tris, pH 7.4) were combined in a plastic Eppendorf and left at rt for 2 days, followed by 4 days at 37° C. After this time, individual reactions were quenched with a solution of 50% A:50% B (v/v, 200 μL) and the resulting samples were analyzed by LC-MS.
Stability test reagent: K2CO3 (2 μL, 50 mM in H2O); Final conditions before quenching: 1 mM peptide, 5 mM K2CO3; 2 d at rt, then 4 d at 37° C.
Stability test reagent: HCl (2 μL, 1 M in H2O); Final conditions before quenching: 1 mM peptide, 0.1 M HCl; 2 d at rt, then 4 d at 37° C.
Stability test reagent: Glutathione (2 μL, 50 mM in 1 M Tris; pH 7.4); Final conditions before quenching: 1 mM peptide, 5 mM GSH, 0.1M Tris, pH 7.4; 2 d at rt, then 4 d at 37° C.

Where [1] appears, read: 5 mM aqueous K2CO3, 1 mM peptide, 5 mM K2CO3, 2 d at rt, then 4 d at 37° C., read-out: % remaining peptide, base.
Setting [2] is: 0.1 M Tris buffer with 5 mM glutathione, 1 mM peptide, 5 mM GSH, 0.1M Tris, pH 7.4, 2 d at rt, then 4 d at 37° C., read-out: % remaining peptide, GSH.
[3] abbreviates: 0.1 M aqueous HCl, 1 mM peptide, 0.1 M HCl, 2 d at rt, then 4 d at 37° C., read-out: % remaining peptide, acid.

The term amount remaining denotes the share of the starting amount still present when the sample was taken.

Take `CC(C)C[C@H](NC(=O)CNC(=O)[C@H](C)NC(=O)[C@H](CSCC(N)=O)NC(=O)CNC(=O)[C@H](CC(C)C)NC(=O)[C@H](Cc1ccc(O)cc1)NC(=O)[C@H](Cc1ccccc1)NC(=O)[C@H](CC(N)=O)NC(=O)[C@H](CO)NC(=O)[C@@H](N)CCCNC(=N)N)C(=O)N[C@@H](C)C(=O)N[C@@H](Cc1c[nH]cn1)C(=O)N[C@@H](CC(=O)O)C(=O)N[C@@H](CCCCN)C(=O)N[C@@H](C)C(=O)N[C@H](C(N)=O)[C@@H](C)O` (H-RSNFYLGC(Cam)AGLAHDKAT-NH2): the “stability toward acids (in words)” value is “unstable” and the “stability toward bases (in words)” value is recorded as “unstable”. Besides, the fraction remaining at 144 h, 1 mM under setting [1] was determined as 66%. Also, under setting [2], the share remaining at 144 h, 1 mM came to 85%. Further, the amount remaining at 144 h, 1 mM under setting [3] came out at 63%.
Consider `Cc1ccc(SC[C@H](NC(=O)CNC(=O)[C@H](CC(C)C)NC(=O)[C@H](Cc2ccc(O)cc2)NC(=O)[C@H](Cc2ccccc2)NC(=O)[C@H](CC(N)=O)NC(=O)[C@H](CO)NC(=O)[C@@H](N)CCCNC(=N)N)C(=O)N[C@@H](C)C(=O)NCC(=O)N[C@@H](CC(C)C)C(=O)N[C@@H](C)C(=O)N[C@@H](Cc2c[nH]cn2)C(=O)N[C@@H](CC(=O)O)C(=O)N[C@@H](CCCCN)C(=O)N[C@@H](C)C(=O)N[C@H](C(N)=O)[C@@H](C)O)cc1` (H-RSNFYLGC(X1)AGLAHDKAT-NH2), for which the “stability toward acids (in words)” value is listed as “stable”, the “stability toward bases (in words)” value was “stable” and the “stability toward external thiol nucleophiles (in words)” value was “stable”. Moreover, where the note is “1 mM peptide, 5 mM K2CO3, 2 d at rt, then 4 d at 37° C.”, the “% remaining peptide, base” value came to 83%. Under setting [2], the amount remaining at 144 h, 1 mM was 90%. Further, under setting [3], the fraction remaining at 144 h, 1 mM came out at 83%.
`CC(C)C[C@H](NC(=O)CNC(=O)[C@H](C)NC(=O)[C@H](CSCc1ccccc1)NC(=O)CNC(=O)[C@H](CC(C)C)NC(=O)[C@H](Cc1ccc(O)cc1)NC(=O)[C@H](Cc1ccccc1)NC(=O)[C@H](CC(N)=O)NC(=O)[C@H](CO)NC(=O)[C@@H](N)CCCNC(=N)N)C(=O)N[C@@H](C)C(=O)N[C@@H](Cc1c[nH]cn1)C(=O)N[C@@H](CC(=O)O)C(=O)N[C@@H](CCCCN)C(=O)N[C@@H](C)C(=O)N[C@H](C(N)=O)[C@@H](C)O` (H-RSNFYLGC(Bn)AGLAHDKAT-NH2): the fraction remaining at 144 h, 1 mM under setting [1] worked out at 84%; the fraction remaining at 144 h, 1 mM under setting [2] worked out at 88%; the fraction remaining at 144 h, 1 mM under setting [3] worked out at 85%.
Turning to `CCN1C(=O)CC(SC[C@H](NC(=O)CNC(=O)[C@H](CC(C)C)NC(=O)[C@H](Cc2ccc(O)cc2)NC(=O)[C@H](Cc2ccccc2)NC(=O)[C@H](CC(N)=O)NC(=O)[C@H](CO)NC(=O)[C@@H](N)CCCNC(=N)N)C(=O)N[C@@H](C)C(=O)NCC(=O)N[C@@H](CC(C)C)C(=O)N[C@@H](C)C(=O)N[C@@H](Cc2c[nH]cn2)C(=O)N[C@@H](CC(=O)O)C(=O)N[C@@H](CCCCN)C(=O)N[C@@H](C)C(=O)N[C@H](C(N)=O)[C@@H](C)O)C1=O` (stereo partly shown) (H-RSNFYLGC(Succinimide(1-Et,3-yl))AGLAHDKAT-NH2), the “stability toward bases (in words)” value is listed as “decomposed” and the “stability toward external thiol nucleophiles (in words)” value is “decomposed”. Further, the share remaining at 144 h, 1 mM under setting [1] amounted to 0%. Besides, the amount remaining at 144 h, 1 mM under setting [2] stood at 37%. Besides, the amount remaining at 144 h, 1 mM under setting [3] is 84%.
